Results on 26 compounds are retold here after PubChem BioAssay AID330 (DTP/NCI, 2004).

Each structure is given as a SMILES string. Where “and” joins values, the source holds several entries; their conditions need not be identical. Identical values can stand only once. Inconclusive results and toxic doses are left out.

This assay deals with P388 leukemia ip, CD2F1 mice, survival T/C. Put plainly: NCI In Vivo Anticancer Drug Screen. Data for tumor model P388 Leukemia (intraperitoneal) in CD2F1 (CDF1) mice. The settings on record: endpoint: median survival time, higher = longer survival. In short, it runs like this:
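Mice carrying the transplanted tumor received test compound or vehicle. Survival was recorded in each group, and the value is the treated-group measurement divided by that of the vehicle-treated control group.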

Setting [1] is: dose: 60.0 mg/kg/injection, schedule: Q01DX005 (ip), vehicle: saline with Tween-80.
Where [2] appears, read: dose: 120.0 mg/kg/injection, schedule: Q01DX005 (ip), vehicle: saline with Tween-80.
The mark [3] stands for this setting: dose: 240.0 mg/kg/injection, schedule: Q01DX005 (ip), vehicle: saline with Tween-80.
[4] abbreviates: dose: 60.0 mg/kg/injection, schedule: Q01DX005 (ip), vehicle: Klucel (hydroxypropylcellulose) (HPC).
Setting [5] is: dose: 120.0 mg/kg/injection, schedule: Q01DX005 (ip), vehicle: Klucel (hydroxypropylcellulose) (HPC).
The mark [6] stands for this setting: dose: 50.0 mg/kg/injection, schedule: Q01DX005 (ip), vehicle: saline with Tween-80.
[7] abbreviates: dose: 100.0 mg/kg/injection, schedule: Q01DX005 (ip), vehicle: saline with Tween-80.
The mark [8] stands for this setting: dose: 200.0 mg/kg/injection, schedule: Q01DX005 (ip), vehicle: saline with Tween-80.
The mark [9] stands for this setting: dose: 12.5 mg/kg/injection, schedule: Q01DX009 (ip), vehicle: saline with Tween-80.
Where [10] appears, read: dose: 25.0 mg/kg/injection, schedule: Q01DX009 (ip), vehicle: saline with Tween-80.
The mark [11] stands for this setting: dose: 50.0 mg/kg/injection, schedule: Q01DX009 (ip), vehicle: saline with Tween-80.
The mark [12] stands for this setting: dose: 100.0 mg/kg/injection, schedule: Q01DX009 (ip), vehicle: saline with Tween-80.
[13] abbreviates: dose: 25.0 mg/kg/injection, schedule: Q01DX005 (ip), vehicle: saline with Tween-80.

Take `CC(=O)C1C(c2ccccc2)SC(c2ccccc2)CC1(C)O` (stereo unspecified): the T/C is 96 % of control (dose: 100.0 mg/kg/injection, schedule: Q04DX002 (ip), vehicle: Klucel (hydroxypropylcellulose) (HPC)); 94 % of control (dose: 200.0 mg/kg/injection, schedule: Q04DX002 (ip), vehicle: Klucel (hydroxypropylcellulose) (HPC)); 87 % of control (dose: 400.0 mg/kg/injection, schedule: Q04DX002 (ip), vehicle: Klucel (hydroxypropylcellulose) (HPC)).

`CC(=O)C1C(=O)C(=O)N(c2ccc(S(N)(=O)=O)cc2)C1=O` (stereo unspecified): the T/C by setting is: under setting [1], 103 % of control; under setting [2], 104 % of control; under setting [3], 118 % of control.

As for `CC12CCC(O)C=C1CCC1C2CCC2(C)C(C3=CC(=O)OC3)CCC12O` (stereo unspecified), the T/C reads like this: (dose: 3.1 micrograms/kg/injection, schedule: Q01DX009 (ip), vehicle: saline with Tween-80) 101 % of control; (dose: 6.2 micrograms/kg/injection, schedule: Q01DX009 (ip), vehicle: saline with Tween-80) 100 % of control; (dose: 12.5 micrograms/kg/injection, schedule: Q01DX009 (ip), vehicle: saline with Tween-80) 96 % of control; (dose: 25.0 micrograms/kg/injection, schedule: Q01DX009 (ip), vehicle: saline with Tween-80) 102 % of control.

Consider `C=C1C(=O)OC2C(OC=O)CCCC12` (stereo unspecified), for which the T/C runs as follows: under setting [4], 100 % of control; under setting [5], 103 % of control.

Turning to `CC(=O)OCC1OC(N2C(=O)c3ccccc3S2(=O)=O)C(OC(C)=O)C(OC(C)=O)C1OC(C)=O` (stereo unspecified), the T/C is 100 % of control (dose: 100.0 mg/kg/injection, schedule: Q04DX002 (ip), vehicle: saline with Tween-80); 91 % of control (dose: 200.0 mg/kg/injection, schedule: Q04DX002 (ip), vehicle: saline with Tween-80); 96 % of control (dose: 400.0 mg/kg/injection, schedule: Q04DX002 (ip), vehicle: saline with Tween-80).

For the compound `c1ccc(C2SC3=NCCCN3Cc3ccccc32)cc1` (stereo unspecified), the T/C by setting is: (dose: 12.5 mg/kg/injection, schedule: Q01DX009 (ip), vehicle: saline) 104 % of control; (dose: 25.0 mg/kg/injection, schedule: Q01DX009 (ip), vehicle: saline) 109 % of control; (dose: 50.0 mg/kg/injection, schedule: Q01DX009 (ip), vehicle: saline) 104 % of control and 97 % of control.

As to `COC(=O)c1[nH]c(=O)c(C#N)c(C(=O)OC)c1C(=O)c1ccncc1`, the T/C is 95 % of control under setting [6] and 92 % of control under setting [7].

In the case of `COC1OC(C(C)Br)C2OC(C)(C)OC12` (stereo unspecified), the T/C is 105 % of control under setting [1], 102 % of control under setting [2] and 107 % of control under setting [3].

In the case of `O=C(Cc1csc2ccccc12)NCC1CC1`, the T/C is 100 % of control under setting [1], 99 % of control under setting [2] and 99 % of control under setting [3].

`COC1C(Cl)CC(/C(=C\C2CCCCC2)C(=O)O)CC1Cl` (stereo unspecified): the T/C is 100 % of control under setting [6], 103 % of control under setting [7] and 101 % of control under setting [8].

For `CCOP(=O)(OCC)C(N)Cc1c[nH]c2ccccc12` (stereo unspecified), the T/C was 101 % of control (dose: 50.0 mg/kg/injection, schedule: Q01DX005 (ip), vehicle: saline) and 104 % of control (dose: 100.0 mg/kg/injection, schedule: Q01DX005 (ip), vehicle: saline).

As for `CC(=O)NC(CSc1ccccc1)C(=O)O` (stereo unspecified), the T/C is 100 % of control under setting [6], 100 % of control under setting [7] and 99 % of control under setting [8].

Turning to `CC(C)N(C(C)C)P1P(N(C(C)C)C(C)C)P(N(C(C)C)C(C)C)P1N(C(C)C)C(C)C` (stereo unspecified), the T/C is 88 % of control under setting [1], 86 % of control under setting [2] and 89 % of control under setting [3].

`Cc1cc(=O)oc2c(C)c3oc4c(c3cc12)CN(C)CC4`: the T/C is 100 % of control (dose: 50.0 mg/kg/injection, schedule: Q01DX005 (ip), vehicle: Klucel (hydroxypropylcellulose) (HPC)) and 117 % of control (dose: 100.0 mg/kg/injection, schedule: Q01DX005 (ip), vehicle: Klucel (hydroxypropylcellulose) (HPC)).

`Cn1cc(CCc2cc[n+](CCC[n+]3ccc(CCc4cn(C)c5ccccc45)cc3)cc2)c2ccccc21`: the T/C was 104 % of control (dose: 6.25 mg/kg/injection, schedule: Q01DX009 (ip), vehicle: Klucel (hydroxypropylcellulose) (HPC)) and 106 % of control (dose: 12.5 mg/kg/injection, schedule: Q01DX009 (ip), vehicle: Klucel (hydroxypropylcellulose) (HPC)).

On to `COC1/C=C/OC2(C)Oc3c(C)c(O)c4c(O)c(c(/C=N/N(C)C(C)C(O)c5ccccc5)c(O)c4c3C2=O)NC(=O)C(C)=C/C=C/C(C)C(O)C(C)C(O)C(C)C(OC(C)=O)C1C` (stereo unspecified), for which the T/C was 120 % of control under setting [9]; 116 % of control under setting [10]; 109 % of control and 116 % of control under setting [11]; 111 % of control under setting [12].

`Cc1cc(N(C)C)nc2cc(N)ccc12`: the T/C is 103 % of control under setting [9]; 111 % of control under setting [10]; 101 % of control and 89 % of control under setting [11].

As for `COc1cc(/C=C2\SC(=S)N(CCCN3CCOCC3)C2=O)ccc1O`, the T/C under setting [11] is 91 % of control.

Regarding `NC(CSSCC(N)C(=O)O)C(=O)O` (stereo unspecified), the T/C (dose: 50.0 mg/kg/injection, schedule: Q01DX009 (ip), vehicle: Klucel (hydroxypropylcellulose) (HPC)) was 105 % of control; the T/C (dose: 100.0 mg/kg/injection, schedule: Q01DX009 (ip), vehicle: Klucel (hydroxypropylcellulose) (HPC)) was 105 % of control; the T/C (dose: 200.0 mg/kg/injection, schedule: Q01DX009 (ip), vehicle: Klucel (hydroxypropylcellulose) (HPC)) is 106 % of control.

In the case of `Nc1nc(N)c2c(Cl)c(CNc3ccc(C(=O)NC(CC(=O)O)CC(=O)O)cc3)ccc2n1`, the T/C by setting is: (dose: 1.5 mg/kg/injection, schedule: Q01DX005 (ip), vehicle: saline with Tween-80) 155 % of control; (dose: 3.0 mg/kg/injection, schedule: Q01DX005 (ip), vehicle: saline with Tween-80) 174 % of control; (dose: 6.0 mg/kg/injection, schedule: Q01DX005 (ip), vehicle: saline with Tween-80) 202 % of control; (dose: 6.25 mg/kg/injection, schedule: Q01DX005 (ip), vehicle: saline with Tween-80) 235 % of control; (dose: 12.0 mg/kg/injection, schedule: Q01DX005 (ip), vehicle: saline with Tween-80) 275 % of control.

With `c1ccc(NN=Nc2ncnc3nc[nH]c23)cc1`, the T/C reads like this: (dose: 12.5 mg/kg/injection, schedule: Q01DX005 (ip), vehicle: saline with Tween-80) 106 % of control; under setting [13], 111 % of control; under setting [6], 102 % of control and 115 % of control.

In the case of `CC1=CCC(C(C)C2CCC3(C)C4=C(C=C5C=CC(=O)OC(C)(C)C5CC4)CCC23C)OC1=O` (stereo unspecified), the T/C runs as follows: (dose: 12.5 mg/kg/injection, schedule: Q01DX005 (ip), vehicle: other) 108 % of control; (dose: 25.0 mg/kg/injection, schedule: Q01DX005 (ip), vehicle: other) 100 % of control; (dose: 50.0 mg/kg/injection, schedule: Q01DX005 (ip), vehicle: other) 93 % of control; (dose: 100.0 mg/kg/injection, schedule: Q01DX005 (ip), vehicle: other) 91 % of control.

On to `Cn1c(N)nc2c([nH]c(=O)n2C2OC(CO)C(O)C2O)c1=O` (stereo unspecified), for which the T/C is 105 % of control under setting [4]; 111 % of control under setting [5]; 111 % of control (dose: 240.0 mg/kg/injection, schedule: Q01DX005 (ip), vehicle: Klucel (hydroxypropylcellulose) (HPC)).

For `CC(O)c1cc2c(o1)C(=O)c1cccc(O)c1C2=O` (stereo unspecified), the T/C is 95 % of control (dose: 9.38 mg/kg/injection, schedule: Q01DX005 (ip), vehicle: Klucel (hydroxypropylcellulose) (HPC)); 95 % of control (dose: 18.75 mg/kg/injection, schedule: Q01DX005 (ip), vehicle: Klucel (hydroxypropylcellulose) (HPC)); 95 % of control (dose: 37.5 mg/kg/injection, schedule: Q01DX005 (ip), vehicle: Klucel (hydroxypropylcellulose) (HPC)).

For `O=C1NC(=S)N/C1=C\c1ccc(Cl)c(Cl)c1`, the T/C was 95 % of control under setting [12]; 94 % of control (dose: 200.0 mg/kg/injection, schedule: Q01DX009 (ip), vehicle: saline with Tween-80); 91 % of control (dose: 400.0 mg/kg/injection, schedule: Q01DX009 (ip), vehicle: saline with Tween-80).

Consider `O=C(O)C1CSCN1c1cccc[n+]1[O-]` (stereo unspecified), for which the T/C is 101 % of control under setting [13], 102 % of control under setting [6] and 99 % of control under setting [7].
